Numbers after ± are expanded uncertainties.
Test: xn = mol fraction of the nth substance listed
Settings: 100.9 kPa, Liquid; for viscosity: Concentric cylinders viscometry; for speed of sound: Single path-length method; for mass density: Vibrating tube method

## CCCC(=O)[O-].CC[NH2+]CC [diethylammonium butanoate] + O
323.15 K, x1 = 0.0122
  viscosity: 0.84 ± 0.02 mPa·s
323.15 K, x1 = 0.0451
  viscosity: 1.72 ± 0.02 mPa·s
323.15 K, x1 = 0.0999
  viscosity: 3.8 ± 0.03 mPa·s
323.15 K, x1 = 0.143
  viscosity: 5.75 ± 0.03 mPa·s
323.15 K, x1 = 0.2051
  viscosity: 8.98 ± 0.05 mPa·s
323.15 K, x1 = 0.3064
  viscosity: 14.26 ± 0.07 mPa·s
323.15 K, x1 = 0.4879
  viscosity: 19.64 ± 0.13 mPa·s
323.15 K, x1 = 0.6684
  viscosity: 20.46 ± 0.16 mPa·s
323.15 K, x1 = 0.974
  viscosity: 18.14 ± 0.19 mPa·s
  speed of sound: 1343.3 ± 0.98 m/s
  mass density: 895.2 ± 0.74 kg/m3
323.15 K, x1 = 0.0123
  speed of sound: 1618.6 ± 0.22 m/s
  mass density: 990.45 ± 0.4 kg/m3
323.15 K, x1 = 0.0453
  speed of sound: 1724.2 ± 0.33 m/s
  mass density: 991.08 ± 0.4 kg/m3
323.15 K, x1 = 0.1005
  speed of sound: 1708.8 ± 0.3 m/s
  mass density: 984.28 ± 0.41 kg/m3
323.15 K, x1 = 0.1439
  speed of sound: 1672.4 ± 0.35 m/s
  mass density: 971.05 ± 0.41 kg/m3
323.15 K, x1 = 0.2067
  speed of sound: 1612.6 ± 0.41 m/s
  mass density: 964.37 ± 0.41 kg/m3
323.15 K, x1 = 0.3096
  speed of sound: 1531.7 ± 0.48 m/s
  mass density: 949.4 ± 0.43 kg/m3
323.15 K, x1 = 0.4951
  speed of sound: 1446.2 ± 0.63 m/s
  mass density: 926.37 ± 0.47 kg/m3
323.15 K, x1 = 0.6812
  speed of sound: 1384.7 ± 0.75 m/s
  mass density: 918.45 ± 0.55 kg/m3
323.15 K, x1 = 0.7974
  speed of sound: 1379.5 ± 0.84 m/s
  mass density: 900.35 ± 0.61 kg/m3
325.65 K, x1 = 0.0122
  viscosity: 0.8 ± 0.02 mPa·s
325.65 K, x1 = 0.0451
  viscosity: 1.62 ± 0.02 mPa·s
325.65 K, x1 = 0.0999
  viscosity: 3.53 ± 0.03 mPa·s
325.65 K, x1 = 0.143
  viscosity: 5.31 ± 0.03 mPa·s
325.65 K, x1 = 0.2051
  viscosity: 8.24 ± 0.04 mPa·s
325.65 K, x1 = 0.3064
  viscosity: 12.94 ± 0.07 mPa·s
325.65 K, x1 = 0.4879
  viscosity: 17.73 ± 0.11 mPa·s
325.65 K, x1 = 0.6684
  viscosity: 18.49 ± 0.14 mPa·s
325.65 K, x1 = 0.974
  viscosity: 16.45 ± 0.17 mPa·s
328.15 K, x1 = 0.0122
  viscosity: 0.75 ± 0.02 mPa·s
328.15 K, x1 = 0.0451
  viscosity: 1.52 ± 0.02 mPa·s
328.15 K, x1 = 0.0999
  viscosity: 3.29 ± 0.03 mPa·s
328.15 K, x1 = 0.143
  viscosity: 4.92 ± 0.03 mPa·s
328.15 K, x1 = 0.2051
  viscosity: 7.58 ± 0.04 mPa·s
328.15 K, x1 = 0.3064
  viscosity: 11.79 ± 0.06 mPa·s
328.15 K, x1 = 0.4879
  viscosity: 16.02 ± 0.1 mPa·s
328.15 K, x1 = 0.6684
  viscosity: 16.76 ± 0.13 mPa·s
328.15 K, x1 = 0.974
  viscosity: 14.94 ± 0.15 mPa·s
330.65 K, x1 = 0.0122
  viscosity: 0.72 ± 0.02 mPa·s
330.65 K, x1 = 0.0451
  viscosity: 1.44 ± 0.02 mPa·s
330.65 K, x1 = 0.0999
  viscosity: 3.07 ± 0.03 mPa·s
330.65 K, x1 = 0.143
  viscosity: 4.57 ± 0.03 mPa·s
330.65 K, x1 = 0.2051
  viscosity: 6.99 ± 0.04 mPa·s
330.65 K, x1 = 0.3064
  viscosity: 10.77 ± 0.06 mPa·s
330.65 K, x1 = 0.4879
  viscosity: 14.54 ± 0.09 mPa·s
330.65 K, x1 = 0.6684
  viscosity: 15.23 ± 0.12 mPa·s
330.65 K, x1 = 0.974
  viscosity: 13.61 ± 0.14 mPa·s
333.15 K, x1 = 0.0122
  viscosity: 0.69 ± 0.02 mPa·s
333.15 K, x1 = 0.0451
  viscosity: 1.36 ± 0.02 mPa·s
333.15 K, x1 = 0.0999
  viscosity: 2.87 ± 0.02 mPa·s
333.15 K, x1 = 0.143
  viscosity: 4.25 ± 0.03 mPa·s
333.15 K, x1 = 0.2051
  viscosity: 6.46 ± 0.04 mPa·s
333.15 K, x1 = 0.3064
  viscosity: 9.86 ± 0.05 mPa·s
333.15 K, x1 = 0.4879
  viscosity: 13.24 ± 0.09 mPa·s
333.15 K, x1 = 0.6684
  viscosity: 13.86 ± 0.11 mPa·s
333.15 K, x1 = 0.974
  viscosity: 12.38 ± 0.13 mPa·s
335.65 K, x1 = 0.0122
  viscosity: 0.66 ± 0.02 mPa·s
335.65 K, x1 = 0.0451
  viscosity: 1.29 ± 0.02 mPa·s
335.65 K, x1 = 0.0999
  viscosity: 2.7 ± 0.02 mPa·s
335.65 K, x1 = 0.143
  viscosity: 3.96 ± 0.03 mPa·s
335.65 K, x1 = 0.2051
  viscosity: 5.98 ± 0.03 mPa·s
335.65 K, x1 = 0.3064
  viscosity: 9.05 ± 0.05 mPa·s
335.65 K, x1 = 0.4879
  viscosity: 12.07 ± 0.08 mPa·s
335.65 K, x1 = 0.6684
  viscosity: 12.64 ± 0.1 mPa·s
335.65 K, x1 = 0.974
  viscosity: 11.33 ± 0.12 mPa·s
338.15 K, x1 = 0.0122
  viscosity: 0.64 ± 0.02 mPa·s
338.15 K, x1 = 0.0451
  viscosity: 1.22 ± 0.02 mPa·s
338.15 K, x1 = 0.0999
  viscosity: 2.53 ± 0.02 mPa·s
338.15 K, x1 = 0.143
  viscosity: 3.7 ± 0.03 mPa·s
338.15 K, x1 = 0.2051
  viscosity: 5.55 ± 0.03 mPa·s
338.15 K, x1 = 0.3064
  viscosity: 8.33 ± 0.05 mPa·s
338.15 K, x1 = 0.4879
  viscosity: 11.03 ± 0.07 mPa·s
338.15 K, x1 = 0.6684
  viscosity: 11.56 ± 0.09 mPa·s
338.15 K, x1 = 0.974
  viscosity: 10.37 ± 0.11 mPa·s
340.65 K, x1 = 0.0122
  viscosity: 0.61 ± 0.02 mPa·s
340.65 K, x1 = 0.0451
  viscosity: 1.16 ± 0.02 mPa·s
340.65 K, x1 = 0.0999
  viscosity: 2.39 ± 0.02 mPa·s
340.65 K, x1 = 0.143
  viscosity: 3.46 ± 0.03 mPa·s
340.65 K, x1 = 0.2051
  viscosity: 5.16 ± 0.03 mPa·s
340.65 K, x1 = 0.3064
  viscosity: 7.68 ± 0.04 mPa·s
340.65 K, x1 = 0.4879
  viscosity: 10.11 ± 0.07 mPa·s
340.65 K, x1 = 0.6684
  viscosity: 10.59 ± 0.08 mPa·s
340.65 K, x1 = 0.974
  viscosity: 9.48 ± 0.1 mPa·s
343.15 K, x1 = 0.0122
  viscosity: 0.59 ± 0.02 mPa·s
343.15 K, x1 = 0.0451
  viscosity: 1.1 ± 0.02 mPa·s
343.15 K, x1 = 0.0999
  viscosity: 2.25 ± 0.02 mPa·s
343.15 K, x1 = 0.143
  viscosity: 3.24 ± 0.03 mPa·s
343.15 K, x1 = 0.2051
  viscosity: 4.81 ± 0.03 mPa·s
343.15 K, x1 = 0.3064
  viscosity: 7.09 ± 0.04 mPa·s
343.15 K, x1 = 0.4879
  viscosity: 9.28 ± 0.06 mPa·s
343.15 K, x1 = 0.6684
  viscosity: 9.64 ± 0.08 mPa·s
343.15 K, x1 = 0.974
  viscosity: 8.7 ± 0.09 mPa·s
